Results reported in patent publication US20220386582A1, “METHOD AND DEVICE TO TRAP ACARIDS” (DOMOBIOS, priority 2015, published 2022).

Experiments:
Type in all cases: in vivo
Acarus siro [1] = assay: Binary choice test in Petri dish, felt with lavandulol composition versus felt with water
Method: (§1) A group of mites (20<n<40) was placed in the center of a Petri dish (diameter 5.5 cm) around which two felt pieces (density of 70 mg/cm^2, thickness of 2 mm) were placed equidistant. The first felt piece was impregnated with water and the other felt piece was impregnated with the lavandulol composition at different dilutions. The diluted lavandulol solutions were prepared from a 90-95% pure lavandulol stock solution (Phytolab, catalog No. 80887). Mites moved spontaneously towards one of the two felt pieces. The number of mites migrating to one side or to the other side was counted and this distribution was compared to a situation where mites were placed in a Petri dish containing two felt pieces impregnated with water. Observations, counting, and identification of mites' species were performed under binocular microscope (magnification 10×). The set-up is illuminated with a cold lamp (KL 1500 LCD, Schott ●), the lighting is symmetric and the light intensity was 50Klux. The experimental conditions were controlled in the room (T° C.: 19-22° C. and RH 40%).

Tyrophagus putrescentiae [2] = assay: as above
Method: as §1

Dermatophagoides farinae = assay: Toxicity, indirect contact (inhalation, 24 hours)
Method: (§2) FIG. 10 is a set of graphs showing the percentage of dead mites after 24 hours of inhalation of lavandulol at different concentrations (0.18 μL, 3 μL or 8 μL of pure solution) or water (Ctrl). Four species of mites were tested: Dermatophagoides pteronyssinus (DP), Dermatophagoides farinae (DF), Tyrophagus putrescentiae (TP) and Acarus siro (AS).
(§3) The species studied were two species of dust common in mattresses in Eurasia (Dermatophagoides pteronyssinus and Dermatophagoides farinae), and two species of stored food mites common in Eurasia (Tyrophagus putrescentiae and Acarus siro). These four species were reared under defined conditions (20° C. and 75% relative humidity). The house dust mites were fed with human flakes (skin and whiskers obtained by cleaning electric shavers) and stored food mites were fed with fish food. The experiments were performed at 20° C. and 40% relative humidity.
(§4) For each of the four species, a group of a mites (10<n<25) was placed in a Petri dish (diameter 5.5 cm). This dish was then recovered by a filter paper that enabled gas-exchange and placed into another dish (diameter 9 cm), in which was placed a piece of paper filter (5×1 cm) impregnated with lavandulol at various concentration (0.18 μL, 3 μL, or 8 μL of pure solution, corresponding respectively to 0.15 mg, 2.5 mg or 6.67 mg of lavandulol), or with water. The bigger of the two dishes was then covered.
(§5) After 24 hours, the number of dead mites were counted. The death of a mite was determined by reaction to a stimulation with a needle: lack of reaction and the persistence of immobility indicated death. This experiment was repeated three times with the four species.
(§6) Observations and counting of mites were made under binocular microscope (magnification 10×). The set-up is illuminated with a cold lamp (KL 1500 LCD, Schott ●), the lighting is symmetric and the light intensity was 50Klux. The experimental conditions were controlled in the room (T° C.: 19-22° C. and RH 40%).

Acarus siro [3] = assay: Toxicity, indirect contact (inhalation, 24 hours)
Method: as §2, §3, §4, §5, §6

[4] = system: Dermatophagoides pteronyssinus; assay: Toxicity, indirect contact (inhalation, 24 hours)
Method: as §2, §3, §4, §5, §6

Tyrophagus putrescentiae [5] = assay: Toxicity, indirect contact (inhalation, 24 hours)
Method: as §2, §3, §4, §5, §6

mites = assay: Short (5 minutes) exposure without drying time on consecutive days (FIG. 9); settings: lavandulol diluted at 10^−6, 5 minutes exposure, no drying time; first day of treatment
Method: FIG. 9 is a graph representing the attracting efficiency of a 5 minutes time exposure of a composition comprising lavandulol diluted at 10^−6. The graph represents the percentage of mites trapped by a fabric sprayed with compositions, as a function of the days of exposure to the attracting composition. Similar experiments were performed to determine attractiveness of mites when an attracting solution comprising one or more attractive agents is exposed during a short time without drying time.

[6] = at least at a dilution of 10^−3, even more at least at 10^−6
[7] = pure lavandulol volumes of 3 μL and 8 μL

Structure (SMILES): C=C(C)C(CO)CC=C(C)C (stereo not drawn) [Lavandulol, 5-Methyl-2-prop-1-en-2-ylhex-4-en-1-ol]
- Number of mites on the felt piece impregnated with the lavandulol composition (Acarus siro [1]; Dilution 10^−3): 44%
- Number of mites on the felt piece impregnated with the lavandulol composition (Acarus siro [1]; Dilution 10^−6): 48%
- Number of mites on the felt piece impregnated with the lavandulol composition (Acarus siro [1]; Dilution 10^−9): 40%
- Number of mites on the felt piece impregnated with the lavandulol composition (Acarus siro [1]; Dilution 10^−12): 55%
- Number of mites on the felt piece impregnated with the lavandulol composition (Acarus siro [1]; Dilution 10^−14): 54%
- Number of mites on the felt piece impregnated with the lavandulol composition (Acarus siro [1]; Dilution 10^−16): 50%
- Number of mites on the felt piece impregnated with the lavandulol composition (Acarus siro [1]; Dilution Undiluted): 1.1%
- attraction of mites (in words) (Acarus siro [1]; [6]): efficiently attracts mites
- attraction of mites (in words) (Acarus siro [1]; undiluted solution): fails to attract mites
- Number of mites on the felt piece impregnated with the lavandulol composition (Tyrophagus putrescentiae [2]; Dilution 10^−3): 34%
- Number of mites on the felt piece impregnated with the lavandulol composition (Tyrophagus putrescentiae [2]; Dilution 10^−6): 44%
- Number of mites on the felt piece impregnated with the lavandulol composition (Tyrophagus putrescentiae [2]; Dilution 10^−7): 48%
- Number of mites on the felt piece impregnated with the lavandulol composition (Tyrophagus putrescentiae [2]; Dilution 10^−9): 38%
- Number of mites on the felt piece impregnated with the lavandulol composition (Tyrophagus putrescentiae [2]; Dilution 10^−12): 47%
- Number of mites on the felt piece impregnated with the lavandulol composition (Tyrophagus putrescentiae [2]; Dilution 10^−13): 49%
- Number of mites on the felt piece impregnated with the lavandulol composition (Tyrophagus putrescentiae [2]; Dilution 10^−14): 69%
- Number of mites on the felt piece impregnated with the lavandulol composition (Tyrophagus putrescentiae [2]; Dilution 10^−15): 63%
- Number of mites on the felt piece impregnated with the lavandulol composition (Tyrophagus putrescentiae [2]; Dilution 10^−16): 60%
- Number of mites on the felt piece impregnated with the lavandulol composition (Tyrophagus putrescentiae [2]; Dilution Undiluted): 2%
- attraction of mites (in words) (Tyrophagus putrescentiae [2]; [6]): efficiently attracts mites
- attraction of mites (in words) (Tyrophagus putrescentiae [2]; undiluted solution): fails to attract mites
- mortality of mites by inhalation (Dermatophagoides farinae; lavandulol volume of 0.18 μL): not lethal
- mortality of mites by inhalation (Dermatophagoides farinae; [7]): high mortality
- mortality of mites by inhalation (Acarus siro [3]; lavandulol volume of 0.18 μL): not lethal
- mortality of mites by inhalation (Acarus siro [3]; [7]): high mortality
- mortality of mites by inhalation ([4]; lavandulol volume of 0.18 μL): not lethal
- mortality of mites by inhalation [4, 7]: high mortality
- mortality of mites by inhalation (Tyrophagus putrescentiae [5]; lavandulol volume of 0.18 μL): not lethal
- mortality of mites by inhalation (Tyrophagus putrescentiae [5]; [7]): high mortality
- percentage of mites attracted in the sheet (mites): very high
